Values of other authors, collected in patent publication US12490952B2, “Combined sub-iliopsoas and subpectineal blocks—for hip surgery” (National Guard Health Affairs, priority 2020, dated 2025).

Details: local anesthetic, general background statement

## CCN(CC)CCOC(=O)c1ccc(N)cc1Cl [Chloroprocaine]
  duration of action (short-acting / intermediate duration): 45 to 90 min
